The subject of assay [1] is Escherichia coli (E. coli—ATCC #10536). The experiment in a line: Automated assessment of efficacy in model surfactant base (2.85% sodium cocoyl glycinate + 1.85% sodium lauroamphoacetate, pH 10), 15 seconds exposure, delta OD450/OD590 in D/E quench. In kind it is cell-based. How it is done:
Solutions were prepared such that the concentrations of the surfactant components and test actives were 1.1× the final desired concentration in order to allow for dilution with the bacterial inoculum in the test. The solutions were manually adjusted to pH 10.0 by dropwise addition of sodium hydroxide solution, as measured with a pH meter at ambient temperature.
Tests were conducted using standard microtiter plate assays using an automated liquid handling system. 270 μl of the surfactant test solution was pipetted into each well of the microtitre plate and 30 μl of the bacterial suspension was then added. After exactly 15 seconds of bacterial exposure, a 30 μl volume of bacterial cells was withdrawn and transferred to 270 μl of D/E quench solution. After 5 minutes in the D/E quench, the optical density (OD) was measured for each plate in turn at two specific wavelengths (450 nm and 590 nm). These provide a dual check of antimicrobial activity, as the OD450 reading is specific for the yellow colour of D/E quench when bacterial growth is observed, whereas OD590 is specific for the initial purple colour of the D/E quench which is retained if no bacterial growth is observed. After the time zero OD measurements, plates were then incubated at 37° C. overnight (16 hours) before repeating the OD measurements. Delta OD values were calculated by subtracting […]. Bacterial growth is observed as an increase in OD450 and a decrease in ΔOD590. To identify antibacterially efficacious systems (those preventing appreciable bacterial growth after incubation), the following threshold changes in OD readings have been adopted: if (1). OD450 increases by less than 0.2 absorbance unit on incubation and (2). OD590 decreases by less than 0.35 unit on incubation. Conversely, where OD450 increases by more than 0.2 AU and OD590 decreases by more than 0.35 unit after incubation, corresponding to a colour shift from purple to yellow, the test system allows bacterial growth and is not deemed efficacious. Four replicate measurements in the same plate have been made for each test system. The number of replicate wells showing either bacterial growth or no growth is also readily assessed by eye by following the colour change.
Dose responses for individual components and binary mixtures of actives at a fixed concentration ratio were generated by sequential dilution of liquors with further surfactant solution to obtain a series of endpoints.
In some selected cases, the combinations were also tested at the weight ratio 1:1.
The method used was the same as in the above Table.

In the next assay the test system is E. coli ATCC #10536. The experiment in a line: Synergy test: high resolution MBC microtiter plate assay in phosphate buffer containing 35% dipropylene glycol, 15 seconds contact. In kind it is cell-based, Escherichia coli. Particulars: E. coli 10536, complete kill in 15 seconds, phosphate buffer with 35% DPG. An excerpt:
One measure of synergy is the industrially accepted method described by Kull, F. C.; Eisman. P. C.; Sylwestrowicz, H. D. and Mayer, R. L., in Applied Microbiology 9:538-541 (1961), using the ratio determined by the formula: Qa/QA÷Qb/QB=Synergy Index (“SI”) wherein: QA=concentration of compound A (first component) in percent, acting alone, which produced an end point (MBC of Compound A). […]=concentration of compound A in percent, in the mixture, which produced an end point. QB=concentration of compound B (second component) in percent, acting alone, which produced an end point (MBC of Compound B). Qb=concentration of compound B in percent, in the mixture, which produced an end point.
When the sum of Qa/QA and Qb/QB is greater than one, antagonism is indicated. […] The lower the SI, the greater is the synergy shown by that particular mixture. The minimum biocidal concentration (MBC) of a microbicide is the lowest concentration tested under a specific set of conditions that provides complete kill of the tested microorganisms.
Synergy tests were conducted using standard microtiter plate assays with phosphate buffer containing 35% dipropylene glycol (DPG). In this method, a wide range of combinations of chemicals was tested by conducting high resolution MBC assays of Component (A) in the presence of various concentrations of Component (B). High resolution MBCs were determined by adding varying amounts of microbicide to one column of a microtiter plate and doing subsequent ten-fold dilutions using an automated liquid handling system to obtain a series of closely spaced endpoints. The MBC plate was inoculated one column at a time with the test microorganism. An aliquot of the inoculated well was transferred at 15 seconds to a plate containing a neutralizing agent (D/E Neutralizing Broth), mixed and held for 5 minutes before being transferred to a growth plate containing trypticase soy broth (TSB). The TSB plate was incubated at 37° C. and read for the presence/absence of growth at 24 hours. The lowest level tested that provided complete kill (as evidenced by no growth in the microtitre plate) of the test organisms in 15 seconds is the minimum biocidal concentration (MBC).
The synergy of the combinations of the present invention was determined against a bacterium, Esherichia coli (E. coli—ATCC #10536), at a concentration of approximately 1×10^8 bacteria per mL. This microorganism is representative of natural contaminants in many consumer and industrial applications.

These results are taken from patent US9820483B2, “Microbial composition” (Rohm and Haas Company, priority 2011, dated 2017).

`CC(C)(C)c1ccccc1O` [2-tert-butylphenol]: the “Δ OD 590 nm = OD590 (time = 16 hours) − OD590 (time zero), Mean” value (“Δ OD 590 nm = OD590” for short) worked out at 0.22 in assay [1] (single active at 0.05% w/v), 0.23 in assay [1] (single active at 0.1% w/v), 0.30 in assay [1] (single active at 0.125% w/v) and 0.07 in assay [1] (single active at 0.2% w/v). For the same compound, the “No. of replicates showing growth (out of 4)” value in assay [1] (single active at 0.1% w/v) was 4; in assay [1] (single active at 0.2% w/v), 0. Moreover, the “ΔOD 450 nm = OD450 (time = 16 hours) − OD450 (time zero), Mean” value (“ΔOD 450 nm = OD450” below) is recorded as −1.55 in assay [1] (single active at 0.1% w/v) and −0.04 in assay [1] (single active at 0.2% w/v).
In the case of `CCC(C)c1ccccc1O` (stereo not drawn) [2-sec-butylphenol], the “Δ OD 590 nm = OD590” value in assay [1] (single active at 0.05% w/v) was 0.30; in assay [1] (single active at 0.1% w/v), 0.36; in assay [1] (single active at […] w/v), 0.50. Also, the entries for the “ΔOD 450 nm = OD450” value in assay [1] (single active at 0.05% w/v) and in assay [1] (single active at […] w/v) were −1.50 and −0.41, respectively. Moreover, in the assay on E. coli ATCC #10536, the “MBC of the component acting alone (QA or QB; Qa or Qb with the other component at 0)” value (from here on “MBC of the component acting alone”) was 0.3 weight %.
Turning to `Cc1cc(O)cc(C(C)C)c1` [3-isopropyl-5-methylphenol], the “MBC of the component acting alone” value with E. coli ATCC #10536 was 0.3 weight %.
For `CC(C)(C)c1cccc(O)c1` [3-tert-butylphenol], the results for the “Δ OD 590 nm = OD590” value in assay [1] (single active at 0.125% w/v) and in assay [1] (single active at 0.2% w/v) were 0.65 and 0.64, respectively. Also, the “ΔOD 450 nm = OD450” value in assay [1] (single active at 0.125% w/v) is −0.45; in assay [1] (single active at 0.2% w/v) it was −0.47. Also, the “MBC of the component acting alone” value in the assay with E. coli ATCC #10536 worked out at 0.3 weight %.
Turning to `CCCc1ccc(O)cc1` [4-propylphenol], the “Δ OD 590 nm = OD590” value was found to be 0.34 in assay [1] (single active at 0.1% w/v) and 0.43 in assay [1] (single active at 0.2% w/v). Also, the “ΔOD 450 nm = OD450” value in assay [1] (single active at 0.2% w/v) is listed as −1.49.
As for `CCCc1cccc(O)c1` [3-n-propylphenol], in assay [1] (single active at 0.125% w/v), the “No. of replicates showing growth (out of 4)” value came out at 4; the “Δ OD 590 nm = OD590” value is 0.57; the “ΔOD 450 nm = OD450” value was −0.59. For the same compound, in assay [1] (single active at 0.2% w/v), the “No. of replicates showing growth (out of 4)” value is 4; the “Δ OD 590 nm = OD590” value worked out at 0.56; the “ΔOD 450 nm = OD450” value is −0.57. In assay [1] (single active at […] w/v), the “Δ OD 590 nm = OD590” value was 0.56 and the “ΔOD 450 nm = OD450” value is reported as −0.63.
With `CCCC1CCC(C(CO)CO)CC1` [2-((1S,4R)-4-propylcyclohexyl)propane-1,3-diol], the “MBC of the component acting alone” value in the assay on E. coli ATCC #10536 stood at 2.5 weight %.
Turning to `C=C(C)[C@@H]1CC[C@@H](C)C[C@H]1O` [(1R,2S,5R)-5-methyl-2-(prop-1-en-2-yl)cyclohexanol], the “MBC of the component acting alone” value with E. coli ATCC #10536 is reported as 0.5 weight %.
